Results taken from US20190225650A1, “PEPTIDOMIMETIC MACROCYCLES AND USE THEREOF IN REGULATING HIF1ALPHA” (AILERON THERAPEUTICS, INC., priority 2013, published 2019).
Bridge positions count the residues as written; N and C are the ends. Square brackets hold non-standard residues; d marks the D form. Peptide text beside a SMILES is read from it. R8 = C=CCCCCCC[C@@](C)(N)C(=O)O; S5 = C=CCCC[C@](C)(N)C(=O)O; Nle = CCCC[C@H](N)C(=O)O; Abu = CC[C@H](N)C(=O)O

Key:
HRE-bla ME-180 cells [1] = test: Reporter gene assay (HRE-bla ME-180 HIF reporter, GeneBLAzer); format: cell-based, human; settings: for EC50: 24 hour normoxia
Procedure, shortened: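 A FRET β-lactamase readout of HIF transcription was used. After compound treatment in 0.3% DMSO/media under normoxic conditions, 20 μl of 6× LiveBLAzer-FRET B/G (CCF4-AM) substrate was added. Plates sat 3 hr at room temperature in the dark and were read at 409 Ex/460Em and 409Ex/530Em on a Synergy 2. Inhibition was compared against DMSO vehicle controls, with chetomin as positive control.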

HRE-bla ME-180 cells [2] = test: Cell proliferation assay (viability, MTT, 1% FBS); format: cell-based, human
Method: The human cervical cell line HRE-Bla ME-180 was obtained from Invitrogen. 2×10^4 ME-180 cells were plated in 96-well plates (costar) in Opti-MEM plus 1% FBS (Invitrogen). After 4 hr, cells were pretreated with chetomin, peptide or 0.5% DMSO (final concentration in media) vehicle control for 16 hr under normoxia (21% O2); then incubation continued under normoxia or hypoxia (1% O2) using a hypoxia incubator (Thermo Forma model). Viable cell numbers were quantified using CellTiter 96 Non-Radioactive Cell Proliferation kit (Promega, G4100). The results are presented in the column “Viability 1% FBS AVG (MTT V3-24 hr Normoxia) (μM)” of Table 6.

SMILES	EC50 (HRE-bla ME-180 cells [1]) [µM]	18 h Avg % max inhibition at top conc (HIF Rptr-24 hrs normoxia) (μM) (HRE-bla ME-180 cells [1])	Viability 1% FBS AVG (MTT V3-24 hr Normoxia) (μM) (HRE-bla ME-180 cells [2])
CCCC[C@H](NC(=O)[C@H](CCC(=O)O)NC(=O)[C@@H](NC(=O)[C@@H](NC(=O)[C@H](CC(C)C)NC(=O)[C@]1(C)CCCC=CCCC[C@](C)(NC(=O)[C@H](CCC(=O)O)NC(=O)[C@H](CC(=O)O)NC(=O)[C@@H](NC(=O)[C@H](Cc2ccccc2)NC(C)=O)[C@@H](C)CC)C(=O)N[C@@H](CO)C(=O)N[C@@H](CC(C)C)C(=O)N[C@@H](CCCC)C(=O)N1)C(C)C)[C@@H](C)CC)C(=O)N[C@@H](C)C(=O)N[C@@H](CC(C)C)C(N)=O [SP-140] (Ac-FIDE[S5]SL[Nle][S5]LVIE[Nle]AL-NH2; staple 5-9)	> 30	+++ (≤25 but <50: +++)	+++ (≤15 but <30: +++)
CCCC[C@H](NC(=O)[C@H](C)NC(=O)[C@@H](NC(=O)[C@@H](NC(=O)[C@H](CC(C)C)NC(=O)[C@]1(C)CCCC=CCCC[C@](C)(NC(=O)[C@H](CCC(=O)O)NC(=O)[C@H](CC(=O)O)NC(=O)[C@@H](NC(=O)[C@H](Cc2ccccc2)NC(C)=O)[C@@H](C)CC)C(=O)N[C@@H](C(C)C)C(=O)N[C@@H](CC(C)C)C(=O)N[C@@H](CCCC)C(=O)N1)C(C)C)[C@@H](C)CC)C(=O)N[C@@H](C)C(=O)N[C@@H](CC(C)C)C(=O)N[C@@H](CO)C(=O)N[C@@H](CO)C(=O)N[C@H](C(N)=O)[C@@H](C)CC [SP-129] (Ac-FIDE[S5]VL[Nle][S5]LVIA[Nle]ALSSI-NH2; staple 5-9)	> 30	++ (≤10 but <25: ++)	++++ (≥30: ++++)
CCCC[C@H](NC(=O)[C@H](Cc1ccccc1)NC(=O)[C@@H](NC(=O)[C@H](C)NC(=O)[C@H](CCC(N)=O)NC(=O)[C@H](CC(=O)O)NC(=O)[C@@H](NC(=O)[C@H](Cc1ccccc1)NC(C)=O)[C@@H](C)CC)C(C)C)C(=O)N[C@@]1(C)CCCC=CCCC[C@@](C)(C(=O)N[C@@H](CCC(N)=O)C(=O)N[C@@H](C)C(=O)N[C@@H](CC(C)C)C(=O)N[C@@H](CC(C)C)C(N)=O)NC(=O)[C@H]([C@@H](C)CC)NC(=O)[C@H](C(C)C)NC(=O)[C@H](CC(C)C)NC1=O [SP-255] (Ac-FIDQAVF[Nle][S5]LVI[S5]QALL-NH2; staple 9-13)	≤ 5	++++ (≥50: ++++)	+ (<5: +)
CCCC[C@H](NC(=O)[C@H](C)NC(=O)[C@]1(C)CCCC=CCCCCCC[C@@](C)(NC(=O)[C@H](C)NC(=O)[C@H](C)NC(=O)[C@@H](NC(=O)[C@H](CC(N)=O)NC(=O)[C@@H](NC(=O)[C@H](CCC(N)=O)NC(=O)[C@]2(C)CCCC=CCCC[C@](C)(NC(=O)[C@H](CC(C)C)NC(=O)[C@H](C)NC(=O)[C@H](C)NC(=O)CNC(=O)[C@H](CCC(N)=O)NC(=O)[C@H](CC(C)C)NC(=O)[C@H](CC(C)C)NC(C)=O)C(=O)N[C@@H](CCCNC(=N)N)C(=O)N[C@@H](C)C(=O)N[C@@H](CC(C)C)C(=O)N2)C(C)C)[C@@H](C)CC)C(=O)N[C@@H](C(C)C)C(=O)N[C@@H](CC(C)C)C(=O)N[C@@H](CCCC)C(=O)N[C@@H](CO)C(=O)N[C@@H](CC(C)C)C(=O)N[C@@H](C(C)C)C(=O)N1)C(N)=O [SP-364] (Ac-LLQGAAL[S5]RAL[S5]QVNIAA[R8]VL[Nle]SLV[S5]A[Nle]-NH2; staple 8-12, 19-26)	> 30	++ (≤10 but <25: ++)	++++ (≥30: ++++)
CC[C@H](C)[C@H](NC(=O)[C@H](CCCNC(=N)N)NC(=O)[C@H](CC(=O)O)NC(=O)[C@H](CC(C)C)NC(=O)[C@H](C)NC(=O)[C@H](CCSC)NC(=O)[C@H](CCC(=O)O)NC(=O)[C@]1(C)CCCC=CCCCCCC[C@@](C)(NC(=O)[C@H](CCC(=O)O)NC(=O)[C@H](CC(=O)O)NC(=O)[C@@H](NC(=O)[C@H](Cc2ccccc2)NC(C)=O)[C@@H](C)CC)C(=O)N[C@@H](C(C)C)C(=O)N[C@@H](CC(C)C)C(=O)N[C@@H](CCSC)C(=O)N[C@@H](CO)C(=O)N[C@@H](CC(C)C)C(=O)N[C@@H](C(C)C)C(=O)N1)C(N)=O [SP-175] (Ac-FIDE[R8]VLMSLV[S5]EMALDRI-NH2; staple 5-12)	> 30	++ (≤10 but <25: ++)	++++ (≥30: ++++)
CCCC[C@H](NC(=O)[C@H](Cc1ccccc1)NC(=O)[C@@H](NC(=O)[C@H](C)NC(=O)[C@H](CCC(N)=O)NC(=O)[C@H](CC(=O)O)NC(=O)[C@@H](NC(=O)[C@H](Cc1ccccc1)NC(C)=O)[C@@H](C)CC)C(C)C)C(=O)N[C@@]1(C)CCCC=CCCC[C@@](C)(C(=O)N[C@@H](CCCC)C(=O)N[C@@H](C)C(=O)N[C@@H](CC(C)C)C(=O)N[C@@H](CC(C)C)C(N)=O)NC(=O)[C@H]([C@@H](C)CC)NC(=O)[C@H](C(C)C)NC(=O)[C@H](Cc2c[nH]cn2)NC1=O [SP-254] (Ac-FIDQAVF[Nle][S5]HVI[S5][Nle]ALL-NH2; staple 9-13)	≤ 5	+++ (≤25 but <50: +++)	+ (<5: +)
CC[C@@H]1NC(=O)[C@H](CC(=O)O)NC(=O)[C@H](Cc2ccc(O)cc2)NC(=O)[C@@](C)(NC(=O)[C@@H](NC(=O)[C@H](CC(C)C)NC(=O)[C@H](CCC(N)=O)NC(=O)[C@@H]2CCCN2C(=O)[C@H](CC(C)C)NC(=O)[C@H](CCC(=O)O)NC(=O)[C@H](CCCCN)NC(=O)[C@@H](NC(=O)[C@H](CCCNC(=N)N)NC(=O)[C@H](CC(=O)O)NC(=O)[C@H](CC(C)C)NC(=O)CNC(=O)[C@H](CCSC)NC(=O)[C@H](CCC(=O)O)NC(=O)[C@@H](NC(=O)[C@@H](NC(=O)[C@H](CC(C)C)NC(=O)[C@]2(C)CCCC=CCCC[C@](C)(NC(=O)[C@H](CCC(=O)O)NC(=O)[C@H](CC(=O)O)NC(=O)[C@@H](NC(=O)[C@H](Cc3ccccc3)NC(C)=O)[C@@H](C)CC)C(=O)N[C@@H](C(C)C)C(=O)N[C@@H](CC(C)C)C(=O)N[C@@H](CCSC)C(=O)N2)C(C)C)[C@@H](C)CC)[C@@H](C)CC)[C@@H](C)O)CCCC=CCCC[C@@](C)(C(=O)N[C@H](C(=O)N[C@@H](CC(N)=O)C(=O)N[C@@H](C)C(N)=O)C(C)C)NC1=O [SP-322] (Ac-FIDE[S5]VLM[S5]LVIEMGLDRIKELPQLT[S5]YD[Abu][S5]VNA-NH2; staple 5-9, 27-31)	> 30	+ (<10: +)	++++ (≥30: ++++)

More lines, main results first:

EC50 (HRE-bla ME-180 cells [1]) [µM]	SMILES	18 h Avg % max inhibition at top conc (HIF Rptr-24 hrs normoxia) (μM) (HRE-bla ME-180 cells [1])	Viability 1% FBS AVG (MTT V3-24 hr Normoxia) (μM) (HRE-bla ME-180 cells [2])
> 30	CC[C@H](C)[C@H](NC(=O)[C@H](Cc1ccccc1)NC(C)=O)C(=O)N[C@@H](CC(=O)O)C(=O)N[C@@H](CCC(=O)O)C(=O)N[C@@H](CCC(=O)O)C(=O)N[C@H](C(=O)N[C@@H](CC(C)C)C(=O)N[C@@H](CCSC)C(=O)N[C@@]1(C)CCCC=CCCC[C@@](C)(C(=O)N[C@@H](CCSC)C(=O)N[C@@H](C)C(=O)N[C@@H](CC(C)C)C(=O)N[C@@H](CC(C)C)C(N)=O)NC(=O)[C@H]([C@@H](C)CC)NC(=O)[C@H](C(C)C)NC(=O)[C@H](CC(C)C)NC1=O)C(C)C [SP-229] (Ac-FIDEEVLM[S5]LVI[S5]MALL-NH2; staple 9-13)	+ (<10: +)	++++ (≥30: ++++)
> 30	CCCC[C@H](NC(=O)[C@H](CC(C)C)NC(=O)[C@@H](NC(=O)[C@H](C)NC(=O)[C@H](CCC(N)=O)NC(=O)[C@H](CC(=O)O)NC(=O)[C@@H](NC(=O)[C@H](Cc1ccccc1)NC(C)=O)[C@@H](C)CC)C(C)C)C(=O)N[C@@]1(C)CCCC=CCCC[C@@](C)(C(=O)N[C@@H](CCCC)C(=O)N[C@@H](C)C(=O)N[C@@H](CC(C)C)C(=O)N[C@@H](CC(N)=O)C(=O)N[C@@H](CCCNC(=N)N)C(=O)N[C@H](C(N)=O)[C@@H](C)CC)NC(=O)[C@H]([C@@H](C)CC)NC(=O)[C@H](C(C)C)NC(=O)[C@H](CC(C)C)NC1=O [SP-273] (Ac-FIDQAVL[Nle][S5]LVI[S5][Nle]ALNRI-NH2; staple 9-13)	+++ (≤25 but <50: +++)	++++ (≥30: ++++)
> 30	CCCC[C@H](NC(=O)[C@H](CCC(=O)O)NC(=O)[C@@H](NC(=O)[C@@H](NC(=O)[C@H](CC(C)C)NC(=O)[C@]1(C)CCCC=CCCC[C@](C)(NC(=O)[C@H](CCC(=O)O)NC(=O)[C@H](CC(=O)O)NC(=O)[C@@H](NC(=O)[C@H](Cc2ccccc2)NC(C)=O)[C@@H](C)CC)C(=O)N[C@@H](C(C)C)C(=O)N[C@@H](CC(C)C)C(=O)N[C@@H](CCSC)C(=O)N1)C(C)C)[C@@H](C)CC)C(=O)N[C@@H](C)C(=O)N[C@@H](CC(C)C)C(=O)N[C@@H](CC(=O)O)C(=O)N[C@@H](CCCNC(=N)N)C(=O)N[C@H](C(N)=O)[C@@H](C)CC [SP-119] (Ac-FIDE[S5]VLM[S5]LVIE[Nle]ALDRI-NH2; staple 5-9)	+++ (≤25 but <50: +++)	++++ (≥30: ++++)
